Molecular target: T1, Thermococcus sp. (strain 9° N-7) DNA ligase, clone B2, SEQ ID NO:15 (Thermococcus nautili, UniProt W8P6M3)
T1 construct: E. coli BL21(DE3)-RIL; purified
T1 sequence (W8P6M3 with tags, fused parts or gaps): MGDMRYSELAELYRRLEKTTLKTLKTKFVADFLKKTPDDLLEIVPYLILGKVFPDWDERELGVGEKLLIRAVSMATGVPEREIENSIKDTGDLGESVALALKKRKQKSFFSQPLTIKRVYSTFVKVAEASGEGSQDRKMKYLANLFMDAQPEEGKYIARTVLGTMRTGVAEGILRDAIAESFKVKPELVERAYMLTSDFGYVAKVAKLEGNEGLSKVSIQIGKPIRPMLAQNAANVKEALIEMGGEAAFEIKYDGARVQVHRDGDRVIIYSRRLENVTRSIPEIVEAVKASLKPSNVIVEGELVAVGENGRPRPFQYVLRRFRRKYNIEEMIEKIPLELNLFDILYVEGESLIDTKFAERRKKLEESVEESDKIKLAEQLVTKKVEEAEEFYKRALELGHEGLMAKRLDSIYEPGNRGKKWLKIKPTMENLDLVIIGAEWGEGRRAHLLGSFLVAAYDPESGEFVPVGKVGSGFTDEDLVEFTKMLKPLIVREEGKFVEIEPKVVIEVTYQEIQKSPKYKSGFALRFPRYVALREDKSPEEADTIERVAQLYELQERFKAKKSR
Test: Km for ATP of purified Thermococcus sp. (strain 9° N-7) DNA ligase (ligation of lambda DNA)
Assay type: biochemical
Conditions: typical assay: predigested lambda DNA substrate, 45° C.; recommended 10 mM Tris-HCl pH 7.5, 2.5 mM MgCl2, 2.5 mM DTT
Procedure: The recommended reaction conditions are:
The typical substrate for assaying activity at 45° C. is lambda DNA. Appropriately digested lambda DNA can reveal the state of ligation of the 12-base extension at the termini of lambda DNA. We typically used either a HindIII or BstEII predigested lambda DNA. Analysis of the ligation was performed on agarose gel electrophoresis.

A Km of under 100 µM was found for `Nc1ncnc2c1ncn2[C@@H]1O[C@H](COP(=O)(O)OP(=O)(O)OP(=O)(O)O)[C@@H](O)[C@H]1O` [ATP] in this work.

Reference: patent US20090142811A1, “Discovery, Cloning and Purification of Thermococccus sp. (Strain 9 Degrees N-7) Dna Ligase” (New England Biolabs, Inc., priority 2005, published 2009)
